Measured values taken from article PMC10721329, “Quisinostat is a brain-penetrant radiosensitizer in glioblastoma” (JCI Insight, 2023).
Where “and” joins values, the source holds several entries; their conditions need not be identical. Identical values can stand only once.

How the values were obtained:
Experiment in all cases: CellTiter-Glo dose-response cell viability assay
Assay type in all cases: cell-based, human
[1] = test system: GB71 patient-derived GSC line
Procedure: (§1) QST (JNJ-26481585) is a second-generation hydroxamic acid harboring remarkable selectivity toward class I HDACs, with a biochemical IC50 of 0.1 nM for HDAC1 ([13]). […] To determine the cytotoxic effects of QST, we performed a dose-titration cell viability assay in 7 patient-derived GSC lines (BT145, GB187, GB239, GB282, GB71, GB82, and GB126) and 1 long-term serum-grown human GBM cell line (U87). Because GBMs display a high degree of intratumoral heterogeneity, we used GSCs derived from both primary and recurrent GBMs that harbored distinct genetic mutations or aberrations, growth rates, MGMT promoter methylation status, and gene expression profiles (Supplemental Figure 1; supplemental material available online with this article; https://doi.org/10.1172/jci.insight.167081DS1). Cell lines were treated with various concentrations of QST (10–1000 nM), and cell viability was measured 3–5 days later (Figure 1, A and B). […] Treatment with QST at the IC50 induced significant inhibition of proliferation (Ki67) and an increase in programmed cell death (cleaved caspase 3) in 2 different GSC lines (Figure 1, C and D). Additional analyses confirmed that QST induces apoptosis after short-term treatment through increased staining of the apoptotic marker annexin V (Figure 2A) and cell cycle arrest (in G2- or S-phase; Figure 2B and Supplemental Figure 1B).
(§2) GSCs were seeded in laminin-coated tissue culture–treated 96-well plates (clear bottom, white plate; Corning) at a density of 1000–5000 cells per well (cell line dependent) in GSC media. U87-MG were seeded using their normal growth conditions without laminin (10% bovine calf serum in DMEM). All cells were incubated at 37°C and allowed to adhere overnight. The next day, cells were treated with incremental concentrations of QST (Selleckchem; 0, 10, 25, 50, 100, 250, 500, and 1000 nM) diluted in media. Cells treated without QST were treated with DMSO diluted in media. Following treatment with QST, cells were grown for 3 to 5 days (cell line dependent), and cell viability was measured and quantified. All cell viability measurements were performed using the CellTiter-Glo luminescent cell viability assay (Promega) following the manufacturer’s instructions. For the sulforhodamine B colorimetric assay for cytotoxicity, the protocol was performed as described elsewhere ([33]). All cell viability results represent the mean of at least 3 biological replicates, each containing 3 technical replicates.

[2] = test system: GB187 patient-derived GSC line
Procedure: as §1, §2

[3] = test system: GB239 patient-derived GSC line
Procedure: as §1, §2

[4] = test system: BT145 patient-derived GSC line; settings: Homo sapiens
Procedure: as §1, §2

## Cn1cc(CNCC2CCN(c3ncc(C(=O)NO)cn3)CC2)c2ccccc21 [QST, quisinostat]
[1]; Homo sapiens, 3-5 days
  IC50: 29 nM
[1]; Homo sapiens, QST 10 nM (log[nM] 1), read-out: Cell viability (fraction of DMSO control)
  viability at 0.01 µM: 76.3%
[1]; Homo sapiens, QST 25 nM (log[nM] 1.39794), read-out: Cell viability (fraction of DMSO control)
  viability at 0.025 µM: 68.5%
[1]; Homo sapiens, QST 50 nM (log[nM] 1.69897), read-out: Cell viability (fraction of DMSO control)
  viability at 0.05 µM: 59.2%
[1]; Homo sapiens, QST 100 nM (log[nM] 2), read-out: Cell viability (fraction of DMSO control)
  viability at 0.1 µM: 46.1%
[1]; Homo sapiens, QST 250 nM (log[nM] 2.39794), read-out: Cell viability (fraction of DMSO control)
  viability at 0.25 µM: 31.5%
[1]; Homo sapiens, QST 500 nM (log[nM] 2.69897), read-out: Cell viability (fraction of DMSO control)
  viability at 0.5 µM: 24.4%
[1]; Homo sapiens, QST 1000 nM (log[nM] 3), read-out: Cell viability (fraction of DMSO control)
  viability at 1 µM: 21.1%
[1]; QST 10 nM (log[nM] 1)
  Cell viability (fraction of DMSO control): 0.687 and 0.6848
[1]; QST 25 nM (log[nM] 1.39794)
  Cell viability (fraction of DMSO control): 0.6366 and 0.6132
[1]; QST 50 nM (log[nM] 1.69897)
  Cell viability (fraction of DMSO control): 0.5332 and 0.5323
[1]; QST 100 nM (log[nM] 2)
  Cell viability (fraction of DMSO control): 0.436 and 0.4247
[1]; QST 250 nM (log[nM] 2.39794)
  Cell viability (fraction of DMSO control): 0.3077 and 0.3032
[1]; QST 500 nM (log[nM] 2.69897)
  Cell viability (fraction of DMSO control): 0.2399 and 0.2412
[1]; QST 1000 nM (log[nM] 3)
  Cell viability (fraction of DMSO control): 0.2213 and 0.2152
[2]; GB187x, QST 10 nM (log[nM] 1)
  Cell viability (fraction of DMSO control): 0.9255 and 0.9282
[2]; GB187x, QST 25 nM (log[nM] 1.39794)
  Cell viability (fraction of DMSO control): 0.8647 and 0.8308
[2]; GB187x, QST 50 nM (log[nM] 1.69897)
  Cell viability (fraction of DMSO control): 0.7684 and 0.7163
[2]; GB187x, QST 100 nM (log[nM] 2)
  Cell viability (fraction of DMSO control): 0.6258 and 0.5995
[2]; GB187x, QST 250 nM (log[nM] 2.39794)
  Cell viability (fraction of DMSO control): 0.5316 and 0.4983
[2]; GB187x, QST 500 nM (log[nM] 2.69897)
  Cell viability (fraction of DMSO control): 0.4749 and 0.464
[2]; GB187x, QST 1000 nM (log[nM] 3)
  Cell viability (fraction of DMSO control): 0.4026 and 0.4385
[2]; Homo sapiens, GB187x, QST 10 nM (log[nM] 1), read-out: Cell viability (fraction of DMSO control)
  viability at 0.01 µM: 88.5%
[2]; Homo sapiens, GB187x, QST 25 nM (log[nM] 1.39794), read-out: Cell viability (fraction of DMSO control)
  viability at 0.025 µM: 79.9%
[2]; Homo sapiens, GB187x, QST 50 nM (log[nM] 1.69897), read-out: Cell viability (fraction of DMSO control)
  viability at 0.05 µM: 70.8%
[2]; Homo sapiens, GB187x, QST 100 nM (log[nM] 2), read-out: Cell viability (fraction of DMSO control)
  viability at 0.1 µM: 59%
[2]; Homo sapiens, GB187x, QST 250 nM (log[nM] 2.39794), read-out: Cell viability (fraction of DMSO control)
  viability at 0.25 µM: 53.2%
[2]; Homo sapiens, GB187x, QST 500 nM (log[nM] 2.69897), read-out: Cell viability (fraction of DMSO control)
  viability at 0.5 µM: 47.1%
[2]; Homo sapiens, GB187x, QST 1000 nM (log[nM] 3), read-out: Cell viability (fraction of DMSO control)
  viability at 1 µM: 43.9%
[2]; Homo sapiens, GB187, 3-5 days
  IC50: 100 nM
[3]; GB239x3, QST 10 nM (log[nM] 1)
  Cell viability (fraction of DMSO control): 0.8159 and 0.818
[3]; GB239x3, QST 25 nM (log[nM] 1.39794)
  Cell viability (fraction of DMSO control): 0.6846 and 0.6788
[3]; GB239x3, QST 50 nM (log[nM] 1.69897)
  Cell viability (fraction of DMSO control): 0.5694 and 0.5366
[3]; GB239x3, QST 100 nM (log[nM] 2)
  Cell viability (fraction of DMSO control): 0.3389 and 0.3234
[3]; GB239x3, QST 250 nM (log[nM] 2.39794)
  Cell viability (fraction of DMSO control): 0.1954 and 0.198
[3]; GB239x3, QST 500 nM (log[nM] 2.69897)
  Cell viability (fraction of DMSO control): 0.1408 and 0.1494
[3]; GB239x3, QST 1000 nM (log[nM] 3)
  Cell viability (fraction of DMSO control): 0.1055 and 0.1137
[3]; Homo sapiens, GB239x3, QST 10 nM (log[nM] 1), read-out: Cell viability (fraction of DMSO control)
  viability at 0.01 µM: 79.7%
[3]; Homo sapiens, GB239x3, QST 25 nM (log[nM] 1.39794), read-out: Cell viability (fraction of DMSO control)
  viability at 0.025 µM: 64%
[3]; Homo sapiens, GB239x3, QST 50 nM (log[nM] 1.69897), read-out: Cell viability (fraction of DMSO control)
  viability at 0.05 µM: 46.2%
[3]; Homo sapiens, GB239x3, QST 100 nM (log[nM] 2), read-out: Cell viability (fraction of DMSO control)
  viability at 0.1 µM: 26%
[3]; Homo sapiens, GB239x3, QST 250 nM (log[nM] 2.39794), read-out: Cell viability (fraction of DMSO control)
  viability at 0.25 µM: 15.6%
[3]; Homo sapiens, GB239x3, QST 500 nM (log[nM] 2.69897), read-out: Cell viability (fraction of DMSO control)
  viability at 0.5 µM: 11.2%
[3]; Homo sapiens, GB239x3, QST 1000 nM (log[nM] 3), read-out: Cell viability (fraction of DMSO control)
  viability at 1 µM: 8.92%
[3]; Homo sapiens, GB239, 3-5 days
  IC50: 41 nM
[4]; 3-5 days
  IC50: 75 nM
[4]; QST 10 nM (log[nM] 1), no IR, read-out: Cell viability (fraction of DMSO control)
  viability at 0.01 µM: 70%
[4]; QST 25 nM (log[nM] 1.39794), no IR, read-out: Cell viability (fraction of DMSO control)
  viability at 0.025 µM: 64%
[4]; QST 50 nM (log[nM] 1.69897), no IR, read-out: Cell viability (fraction of DMSO control)
  viability at 0.05 µM: 40%
